Data published in PubChem BioAssay (NCI).
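Assay format: 96-well plates, 48-hour exposure. TGI denotes the concentration required for complete inhibition of growth.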

Assays:
Test in all cases: NCI anticancer screen, dose series, 48 h
[1] = system: 786-0 renal
[2] = system: A498 renal
[3] = system: A549 NSCLC
[4] = system: ACHN renal
[5] = system: CAKI-1 renal
[6] = system: CCRF-CEM leukemia
[7] = system: COLO 205 colon
[8] = system: DLD-1 colon
[9] = system: DMS 273 small cell lung
[10] = system: EKVX NSCLC
[11] = system: HCC-2998 colon
[12] = system: HCT-15 colon
[13] = system: HL-60(TB) leukemia
[14] = system: HT29 colon
[15] = system: IGROV1 ovarian
[16] = system: K-562 leukemia
[17] = system: KM12 colon
[18] = system: KM20L2 colon
[19] = system: LOX IMVI melanoma
[20] = system: LXFL 529 NSCLC
[21] = system: M14 melanoma
[22] = system: MALME-3M melanoma
[23] = system: MOLT-4 leukemia
[24] = system: NCI-H23 lung
[25] = system: NCI-H460 lung
[26] = system: NCI-H522 lung
[27] = system: OVCAR-4 ovarian
[28] = system: OVCAR-5 ovarian
[29] = system: OVCAR-8 ovarian
[30] = system: RPMI-8226 leukemia
[31] = system: RXF 393 renal
[32] = system: SF-268 CNS
[33] = system: SF-295 CNS
[34] = system: SF-539 CNS
[35] = system: SK-MEL-2 melanoma
[36] = system: SK-MEL-28 melanoma
[37] = system: SK-MEL-5 melanoma
[38] = system: SK-OV-3 ovarian
[39] = system: SN12C renal
[40] = system: SNB-19 CNS
[41] = system: SNB-75 CNS
[42] = system: SNB-78 CNS
[43] = system: SW-620 colon
[44] = system: TK-10 renal
[45] = system: U251 CNS
[46] = system: UACC-257 melanoma
[47] = system: UACC-62 melanoma
[48] = system: UO-31 renal
[49] = system: XF 498 CNS

## Cn1c2cc([N+](=O)[O-])ccc2c(=O)c2c(O)cc3c(c21)C=CC(C)(C)O3
[1]
  TGI: > 100 µM
[2]
  TGI: > 100 µM
[3]
  TGI: > 100 µM
[4]
  TGI: > 100 µM
[5]
  TGI: > 100 µM
[6]
  TGI: > 100 µM
[7]
  TGI: > 100 µM
[8]
  TGI: > 100 µM
[9]
  TGI: > 100 µM
[10]
  TGI: > 100 µM
[11]
  TGI: > 100 µM
[12]
  TGI: > 100 µM
[13]
  TGI: > 100 µM
[14]
  TGI: > 100 µM
[15]
  TGI: > 100 µM
[16]
  TGI: > 100 µM
[17]
  TGI: > 100 µM
[18]
  TGI: > 100 µM
[19]
  TGI: > 100 µM
[20]
  TGI: > 100 µM
[21]
  TGI: > 100 µM
[22]
  TGI: > 100 µM
[23]
  TGI: > 100 µM
[24]
  TGI: > 100 µM
[25]
  TGI: > 100 µM
[26]
  TGI: > 100 µM
[27]
  TGI: > 100 µM
[28]
  TGI: 80.4 µM
[29]
  TGI: > 100 µM
[30]
  TGI: > 100 µM
[31]
  TGI: 74.5 µM
[32]
  TGI: > 100 µM
[33]
  TGI: 47.1 µM
[34]
  TGI: 32.4 µM
[35]
  TGI: > 100 µM
[36]
  TGI: > 100 µM
[37]
  TGI: > 100 µM
[38]
  TGI: 87.8 µM
[39]
  TGI: > 100 µM
[40]
  TGI: 73 µM
[41]
  TGI: 25.7 µM
[42]
  TGI: > 100 µM
[43]
  TGI: > 100 µM
[44]
  TGI: 89.1 µM
[45]
  TGI: > 100 µM
[46]
  TGI: > 100 µM
[47]
  TGI: > 100 µM
[48]
  TGI: 67.6 µM
[49]
  TGI: 47.7 µM
